Measurements reported in the NIST ThermoML archive (doi:10.1021/je050060q).
Numbers after ± are expanded uncertainties.

Settings: Liquid; for mass density: Pycnometric method

Row | SMILES | speed of sound (293.15 K) | mass density (293.15 K) | speed of sound (298.15 K) | mass density (298.15 K) | mass density (303.15 K) | speed of sound (308.15 K) | mass density (308.15 K) | speed of sound (313.15 K) | mass density (313.15 K) | speed of sound (318.15 K) | mass density (318.15 K) | speed of sound (323.15 K) | mass density (323.15 K) | speed of sound (328.15 K) | mass density (328.15 K) | speed of sound (333.15 K) | mass density (333.15 K) | speed of sound (338.15 K) | speed of sound (343.15 K) | speed of sound (348.15 K) | also measured
1 | CCCCCCCCCCCCCCCC [hexadecane] | 1357 ± 3 m/s | 773.38 ± 0.25 kg/m3 | 1338 ± 3 m/s | 769.97 ± 0.26 kg/m3 | 766.55 ± 0.27 kg/m3 | 1301 ± 3 m/s | 763.12 ± 0.27 kg/m3 | 1283 ± 3 m/s | 759.68 ± 0.28 kg/m3 | 1265 ± 3 m/s | 756.24 ± 0.29 kg/m3 | 1246 ± 3 m/s | 752.79 ± 0.29 kg/m3 | 1228 ± 3 m/s | 749.33 ± 0.3 kg/m3 | 1211 ± 3 m/s | 745.86 ± 0.31 kg/m3 | 1193 ± 3 m/s | 1176 ± 3 m/s | 1158 ± 3 m/s | mass density (338.15 K): 742.39 ± 0.32 kg/m3; mass density (343.15 K): 738.91 ± 0.33 kg/m3; mass density (348.15 K): 735.42 ± 0.33 kg/m3; speed of sound (353.15 K): 1141 ± 3 m/s; mass density (353.15 K): 731.93 ± 0.34 kg/m3; speed of sound (358.15 K): 1124 ± 3 m/s; mass density (358.15 K): 728.43 ± 0.35 kg/m3; speed of sound (363.15 K): 1107 ± 3 m/s; mass density (363.15 K): 724.92 ± 0.36 kg/m3; speed of sound (368.15 K): 1090 ± 3 m/s; mass density (368.15 K): 721.4 ± 0.37 kg/m3; speed of sound (373.15 K): 1074 ± 3 m/s; mass density (373.15 K): 717.88 ± 0.38 kg/m3
2 | CCCCCC [hexane] | 1098 ± 3 m/s | 659.44 ± 0.16 kg/m3 | 1076 ± 3 m/s | 654.93 ± 0.17 kg/m3 | 650.36 ± 0.18 kg/m3 | 1032 ± 3 m/s | 645.74 ± 0.19 kg/m3 | 1010 ± 3 m/s | 641.08 ± 0.19 kg/m3 | 988 ± 3 m/s | 636.37 ± 0.2 kg/m3 | 966 ± 3 m/s | 631.61 ± 0.21 kg/m3 | 944 ± 3 m/s | 626.81 ± 0.22 kg/m3 | 921 ± 3 m/s | 621.95 ± 0.23 kg/m3 | 900 ± 3 m/s | 878 ± 3 m/s | 856 ± 3 m/s | speed of sound (303.15 K): 1054 ± 3 m/s; speed of sound (353.15 K): 834 ± 3 m/s; speed of sound (358.15 K): 812 ± 3 m/s; speed of sound (363.15 K): 790 ± 3 m/s; speed of sound (368.15 K): 768 ± 3 m/s; speed of sound (373.15 K): 747 ± 3 m/s
